Earlier results in patent US20100215737A1, “COMBINATION PHARMACEUTICAL COMPOSITIONS” (priority 2007, published 2010).

Assays:
[1] = tested on: subventricular zone and dentate gyrus cells; conditions: young adult rats
[2] = tested on: endothelial nitric oxide synthase (eNOS); conditions: mouse, in vivo
[3] = marketed formulations
[4] = tested on: transient global ischemia; conditions: 1 mg/kg iv immediately after reperfusion
[5] = tested on: middle cerebral artery occlusion; conditions: single iv bolus 0.1 mg/kg immediately or 3 h after occlusion
[6] = tested on: permanent and transient focal ischemia; conditions: >0.1 mg/kg iv immediately after onset of ischemia
peripheral nerve damage = conditions: after peripheral nerve damage
[7] = relative to small intestine
PgP [8] = molecular target: T1, PgP (Homo sapiens, UniProt P08183)
T1 construct: PgP is found in the luminal plasma membrane of brain capillary endothelial cells (BCEC); host or cells: blood brain barrier / primary cultured BCEC

CYP = conditions: concentration of up to 1 μM
global ischemic insult = conditions: mice
[9] = tested on: middle cerebral artery occlusion (MCO); conditions: 0.32 to 1.0 mg/kg iv immediately after occlusion
transient focal ischemia = conditions: in vivo
[10] = tested on: ischemic damage in the rat cortex; conditions: in vivo
[11] = human, in vivo
APP holoprotein and mRNA = conditions: 50 microM
[12] = tested on: mdr-1a knockout and wild type mice; conditions: mdr-1a knockout vs wild type mice, oral
PgP [13] = molecular target: T1, PgP; conditions: dose-depended effect

T1 sequence (P08183 whole entry): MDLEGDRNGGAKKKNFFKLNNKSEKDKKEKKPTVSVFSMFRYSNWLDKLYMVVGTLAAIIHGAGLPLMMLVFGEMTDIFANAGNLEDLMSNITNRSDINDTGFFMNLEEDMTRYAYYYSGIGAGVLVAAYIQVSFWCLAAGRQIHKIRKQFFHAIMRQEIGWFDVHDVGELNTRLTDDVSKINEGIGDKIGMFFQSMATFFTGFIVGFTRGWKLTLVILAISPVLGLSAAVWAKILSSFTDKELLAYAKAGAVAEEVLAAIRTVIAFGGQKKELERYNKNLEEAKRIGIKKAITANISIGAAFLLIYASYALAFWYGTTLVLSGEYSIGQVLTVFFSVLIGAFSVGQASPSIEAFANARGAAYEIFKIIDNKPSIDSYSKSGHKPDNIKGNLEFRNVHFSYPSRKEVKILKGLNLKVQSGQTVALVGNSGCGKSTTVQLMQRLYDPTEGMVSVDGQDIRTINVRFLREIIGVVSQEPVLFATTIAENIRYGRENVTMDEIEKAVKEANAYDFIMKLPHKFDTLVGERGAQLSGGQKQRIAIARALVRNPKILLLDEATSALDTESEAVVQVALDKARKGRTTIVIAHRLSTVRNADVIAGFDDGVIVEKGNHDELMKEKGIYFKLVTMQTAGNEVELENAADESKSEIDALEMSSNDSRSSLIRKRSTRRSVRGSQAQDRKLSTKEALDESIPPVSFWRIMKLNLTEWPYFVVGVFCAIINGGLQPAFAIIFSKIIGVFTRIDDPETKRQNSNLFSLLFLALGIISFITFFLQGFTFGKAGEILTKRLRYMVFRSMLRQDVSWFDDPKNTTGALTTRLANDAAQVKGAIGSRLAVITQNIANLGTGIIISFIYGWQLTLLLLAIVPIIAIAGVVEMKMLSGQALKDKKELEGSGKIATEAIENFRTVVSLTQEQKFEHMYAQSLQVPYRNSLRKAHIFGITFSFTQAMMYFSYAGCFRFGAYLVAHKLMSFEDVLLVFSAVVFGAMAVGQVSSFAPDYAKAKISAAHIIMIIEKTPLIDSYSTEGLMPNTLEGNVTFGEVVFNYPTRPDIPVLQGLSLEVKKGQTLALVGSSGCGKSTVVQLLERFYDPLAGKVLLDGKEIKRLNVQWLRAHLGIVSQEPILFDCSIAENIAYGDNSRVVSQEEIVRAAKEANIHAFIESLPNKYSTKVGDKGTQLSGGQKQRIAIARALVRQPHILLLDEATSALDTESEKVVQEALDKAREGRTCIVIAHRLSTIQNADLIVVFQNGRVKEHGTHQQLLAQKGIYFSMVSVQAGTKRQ

Compound: NCCN(CCN)/[N+]([O-])=N/O [DETA/NONOate, (Z)-1-[N-(2-aminoethyl)-N-(2-ammonioethyl)amino]diazen-1-ium-1,2-diolate]
- cell proliferation and migration in the subventricular zone and the dentate gyrus [1]: significantly increases cell proliferation and migration

Compound: CC[C@H](C)C(=O)O[C@H]1CCC=C2C=C[C@H](C)[C@H](CC[C@@H]3C[C@@H](O)CC(=O)O3)[C@H]21 [Mevastatin]
- cerebral blood flow (CBF) [2]: augmented absolute CBF
- eNOS expression [2]: increase in eNOS mRNA and protein levels

Compound: COCCOC(=O)C1=C(C)NC(C)=C(C(=O)OC(C)C)C1c1cccc([N+](=O)[O-])c1 (stereo not drawn) [Nimodipine]
- bioavailability after oral administration, average [3]: approximately 25%
- solubility in water: practically insoluble in water

Compound: C=CC[C@@H]1/C=C(\C)C[C@H](C)C[C@H](OC)[C@H]2O[C@@](O)(C(=O)C(=O)N3CCCC[C@H]3C(=O)O[C@H](/C(C)=C/[C@@H]3CC[C@@H](O)[C@H](OC)C3)[C@H](C)[C@@H](O)CC1=O)[C@H](C)C[C@@H]2OC [Tacrolimus]
- neuroprotective effect [4]: long-lasting neuroprotective effects
- cortical brain damage [5]: reducing cortical brain damage
- reductions of cerebral metabolic rate of oxygen and oxygen extraction function [5]: significantly attenuated
- ischemic brain damage [6]: significant reduction in ischemic brain damage
- increase of axonal growth (peripheral nerve damage): 20%
- ileum and colonic absorption efficiency [7]: half that observed for the small intestine
- affinity for PgP (PgP [8]): ~0.1 µM
- effect on CYP activities (CYP): little detectable effect
- reduction of hippocampal damage (global ischemic insult): more than 80%
- infarction area [9]: dose-dependently reduced the infarction area
- peptidyl-prolyl isomerase activity (transient focal ischemia): blocked the increase in peptidyl-prolyl isomerase activity
- reduction of infarct size (transient focal ischemia): 53%
- neuroprotective effect, drug alone (MCO; 1 mg/kg iv alone, 1, 2 or 3 h after occlusion): neuroprotective effects when administered alone up to 1 h following occlusion
- brain damage, combination with rt-PA (MCO; tacrolimus 1 mg/kg plus same dose of rt-PA iv): significant reduction in brain damage was observed at up to 2 h following occlusion
- reduction of ischemic damage in the rat cortex [10]: up to 70%
- incidence of diabetes [11]: 20 % of all patients
- increases in APP holoprotein and mRNA caused by PGE2 treatment (APP holoprotein and mRNA): completely inhibited
- blood concentrations [12]: significantly higher
- concentration in brain tissue, fold higher [12]: 10 fold
- total clearance, reduction [12]: 66%

Compound: O=C(O)[C@H]1O[C@@H](Oc2cc3oc(-c4ccccc4)cc(=O)c3c(O)c2O)[C@H](O)[C@@H](O)[C@@H]1O [baicalin]
- transport of nimodipine across the BBB (PgP [13]): increased the transport of nimodipine across the BBB

Compound: COc1ccc2cc3[n+](cc2c1OC)CCc1cc2c(cc1-3)OCO2 [berberine]
- transport of nimodipine across the BBB (PgP [13]): increased the transport of nimodipine across the BBB
